Test results published in the SangsterLogP compilation.

SMILES	logP
Nc1ccc(C(=O)O)c(O)c1	0.89
CCCCNCCC	2.12
CC(C)(C)[N+](=O)[O-]	1.17
C=CCOc1ccccc1OCC(O)CNC(C)C (stereo unspecified)	2.1
COc1ccccc1	2.11
COC(=O)C(C#N)=NNc1ccc(Cl)c(C(F)F)c1	3.8
NC(=O)CCCNC(=C1C=C(F)C=CC1=O)c1ccc(Cl)cc1	3.06
CC(=O)c1ccc(Br)cc1	2.43
CC(Oc1ccccc1)C(=O)NC1C(=O)N2C1SC(C)(C)C2C(=O)O (stereo unspecified)	2.2
O=C(O)c1ccc(Oc2ccccc2)cc1	3.91
C=CCc1ccccc1OCC(O)CNC(C)C (stereo unspecified)	3.1
CCC1(CCC(C)C)C(=O)NC(=O)NC1=O	2.07
OCCN1CCN(CC/C=C2\c3ccccc3Sc3ccc(Cl)cc32)CC1	4.18
N#Cc1ccc(OCC(=O)O)cc1	0.93
CN1C(C(=O)Nc2ccccn2)=C(O)c2ccccc2S1(=O)=O	3.06
O=[N+]([O-])/C=C/c1ccccc1	2.11
CN1CCN(CCCN2c3ccccc3Sc3ccc(C(F)(F)F)cc32)CC1	5.03
CCOCCO	-0.32
NC(CCCc1ccccc1)C(=O)O (stereo unspecified)	-0.36
CNS(=O)(=O)c1ccc(N)cc1	-0.01
c1ccnnc1	-0.72
CC(=O)C(C#N)=NNc1cccc(Cl)c1	3.9
CN(C)S(=O)(=O)c1ccc(N)cc1	0.67

SMILES	logP
O=C(O)CCCCn1nnc2ccccc21	0.48
NC(=O)c1cc([N+](=O)[O-])cc([N+](=O)[O-])c1	0.83
CC(C)N	0.26
CC(C)C(=O)C(C#N)=NNc1ccc(Cl)cc1C(F)(F)F	5.67
Cc1c[nH]c(=O)[nH]c1=O	-0.62
CC(C)c1nnc(N2CCOCC2)n(N)c1=O	0.49
CC(O)Cn1cnc2c1c(=O)n(C)c(=O)n2C (stereo unspecified)	-0.77
CN1CCN(C2=Nc3cc(Cl)ccc3Nc3ccccc32)CC1	3.23
CCCn1nnc2ccccc21	2.13
Brc1nc(Br)c(Br)[nH]1	1.96
N#Cc1ccccc1	1.56
Cc1cccc(C)c1C	3.66
O=C(O)COC1Cc2ccccc2C1	2.33
C=CCOc1cc(C(=O)O)ccc1N	1.25
NCC(F)(F)F	0.24
O=[N+]([O-])c1ccc2c(ccc[n+]2[O-])c1	0.39
O=[N+]([O-])c1ccc2c(c1)c([N+](=O)[O-])cc[n+]2[O-]	0.9
Brc1ccc2[nH]ccc2c1	3
CN(C)CCN1c2ccccc2Sc2ccccc21	4.2
OCC(O)CO	-1.76
N#C/C(=C\c1ccccc1)C(N)=O	1.56
CCCCOC(=O)c1ccc(O)cc1	3.57
CC1=CC(=O)c2ccccc2C1=O	2.2

SMILES	logP
Nc1ccccc1-c1ccccc1	2.84
CC(=O)OC1C(Cl)C(Cl)C(Cl)C(Cl)C1Cl (stereo unspecified)	3.4
Nc1cc(N2CCCCC2)nc(N)[n+]1[O-]	1.24
CC(CN1CCOCC1)C(C(=O)N1CCCC1)(c1ccccc1)c1ccccc1 (stereo unspecified)	3.61
C/C=N/O	-0.13
CC(=O)c1ccccn1	0.85
CCCC(C)(COC(N)=O)COC(N)=O	0.7
CC(=O)CC(C)=O	0.4
N#Cc1ccc(NC=O)cc1	1.08
Cc1ccc(N=C=S)cc1	3.92
c1ccc2c(c1)ccc1ccccc12	4.46
CCCOC(=O)c1ccc(S(N)(=O)=O)cc1	1.75
O=C1C=CC(=O)C=C1	0.2
CCn1cc(C(=O)O)c(=O)c2ccc(C)nc21	1.59
CNC(=O)OC	-0.06
c1ccc2[nH]ncc2c1	1.77
CNC(=O)Oc1cc(C)ccc1C(C)C	3.11
CCCCN	0.97
Nc1ccccn1	0.48
Cc1c(Cl)cccc1Nc1ccccc1C(=O)O	5.17
Cc1cccc(OCC(=O)O)c1	1.78
c1ccsc1	1.81
Nc1nc2c(ncn2[C@H]2C[C@H](O)[C@@H](CO)O2)c(=S)[nH]1	-0.79

SMILES	logP
NNc1ccccc1	1.25
COc1ccccc1C(N)=O	0.86
CCCCOCCO	0.83
CCOC(=O)Nc1ccccc1	2.3
Oc1cccc(F)c1	1.93
Cc1cn([C@H]2CC[C@@H](CO)O2)c(=O)[nH]c1=O	-0.6
CN(C)C(=O)Nc1ccc(Cl)cc1	1.94
Cc1cnccn1	0.21
Cc1cccc(C)c1	3.2
CN(N=O)C(N)=O	-0.03
CCOC(=O)c1cccnc1	1.32
Cc1cc(O)c(C(C)(C)C)cc1CC(N)=O	2.67
CC(C(=O)O)c1ccc(-c2ccccc2)c(F)c1 (stereo unspecified)	4.16
CSc1nnc(-c2ccccc2)c(=O)n1N	1.66
CC(C)C[C@H](N)C(=O)O	-1.52
OCC(Cl)(Cl)Cl	1.42
Cc1cccc(C)c1O	2.36
CC(=O)C=Cc1ccccc1	2.07
O=C(O)COc1ccccc1I	2.33
Cc1cc(C(=O)NN)ccn1	-0.37
COC(=O)C(C#N)=NNc1cccc(Cl)c1	3.6
CNC(=O)Oc1ccccc1I	1.94
O=C1NC(=O)C(c2ccccc2)(c2ccccc2)N1	2.47

SMILES	logP
COC(=O)c1cccnc1	0.83
Cc1ccccc1N(C)C	2.85
O=[N+]([O-])c1cccc2ccc[n+]([O-])c12	0.04
COC1=CC(=O)C[C@@H](C)[C@]12Oc1c(Cl)c(OC)cc(OC)c1C2=O	2.18
N#Cc1ccc(C(=O)O)cc1	1.56
CC(C)(c1ccc(O)cc1)c1ccc(O)cc1	3.32
O=CNc1ccccc1	1.15
O=C1CN=C(c2ccccc2)c2cc([N+](=O)[O-])ccc2N1	2.25
Cc1ccc2cccc(O)c2n1	2.33
CN(C)CC/C=C1\c2ccccc2Sc2ccc(Cl)cc21	5.18
C=CC	1.77
O=[N+]([O-])c1ccc(N=C=S)cc1	3.62
O=C(O)CCCc1ccccc1	2.42
CSc1ccc2c(c1)N(CCC1CCCCN1C)c1ccccc1S2 (stereo unspecified)	5.9
CCOC(=O)c1ccc(O)cc1	2.47
CC(C)(C)NC[C@H](O)COc1ccccc1C1CCCC1	4.15
C=CCBr	1.79
OC1OC[C@@H](O)[C@@H](O)[C@H]1O (stereo partly specified)	-2.32
Nc1cccc(O)c1	0.21
Cc1ccnc2c(O)cccc12	2.41
NC(N)=S	-1.08
COc1ccccc1CO	1.13
CC(=O)Nc1ccccc1	1.16

SMILES	logP
N#Cc1ccccc1O	1.61
COC(=O)C(C#N)=NNc1cc(Cl)c(Cl)c(Cl)c1	5.22
CCOC(=O)C(C#N)=NNc1ccc(Cl)c(Cl)c1	4.66
S=C=Nc1ccccc1	3.28
COc1ccc(NS(=O)(=O)c2ccc(N)cc2)cc1	1.51
CC(=O)Nc1ccc(F)cc1	1.47
CCCCNc1ccc(C(=O)OCCN(C)C)cc1	3.51
O=[N+]([O-])c1cc[n+]([O-])c2c([N+](=O)[O-])cccc12	0.76
CCCl	1.43
Clc1ccccc1	2.84
COc1cc(CCN)cc(OC)c1OC	0.78
CC(=O)Nc1ccccn1	0.61
O=[N+]([O-])c1cccc(Cl)c1	2.46
CCN	-0.13
Cc1cc(=O)oc2cc(O)ccc12	1.9
CCCCCBr	3.37
O=C1c2ccccc2C(=O)C1c1ccccc1	2.9
Cc1cccc(N)c1	1.4
O=C(O)c1cccnc1	0.36
Oc1ccc(Cl)cc1Cl	3.06
CCCN(CCC)S(=O)(=O)c1ccc(C(=O)O)cc1	3.21
CCN(CC)c1ccccc1	3.31
O=C(O)c1ccc(I)cc1	3.02

SMILES	logP
CNC1(c2ccccc2Cl)CCCCC1=O (stereo unspecified)	2.18
NC(=O)CCCCc1ccccn1	0.38
O=C1C=CC(=NO)C=C1	1.08
O=C1NC(=O)C(c2ccccc2)(c2ccccc2)C(=O)N1	1.96
Cc1cccc(OCCN(C)C)c1	2.05
COC(=O)C(C#N)=NNc1ccc(Cl)cc1C	4.3
COc1cccc(N)c1	0.93
Clc1ccc(Cl)cc1	3.44
O=c1cccccc1O	0.53
COC(=O)C(C#N)=NNc1ccccc1	2.59
CC(=O)c1cccc(OCC(=O)O)c1	0.98
O=C1CC2OCC=C3CN4CC[C@]56c7ccccc7N1C5[C@H]2[C@H]3C[C@H]46 (stereo partly specified)	1.93
O=C(CCNNC(=O)c1ccncc1)NCc1ccccc1	0.87
CCI	2
NS(=O)(=O)c1cccc(Cl)c1	1.29
Oc1c(F)c(F)c(F)c(F)c1F	3.23
COc1ccc(CC(=O)O)cc1	1.42
Nc1ccncc1	0.26
N=c1ccn(O)c2ccccc12	0.05
CC(=O)Nc1ccc([N+](=O)[O-])cc1	1.66
Cc1ccc2ccccc2c1	3.86
C=CCNCCC	1.33
O=[N+]([O-])c1ccccc1	1.85

SMILES	logP
CCOC(=O)C(C#N)=NNc1cc(Cl)c(Cl)cc1Cl	5.21
Cc1ccc(CO)cc1	1.58
c1ncncn1	-0.73
CC(N)C(=O)O (racemic)	-2.96
CCCCNC(=O)NCCCC	1.4
CCc1cccc(OC(=O)NC)c1	2.2
CCOC(C)OCC	0.84
Cc1cccc(S(N)(=O)=O)c1	0.85
Brc1ccncc1	1.54
C1CCNC1	0.46
Cc1cc([N+](=O)[O-])c2ccccc2[n+]1[O-]	1.25
Oc1ncnc2[nH]cnc12	-1.11
CSCC[C@H](N)C(=O)O	-1.87
CCN(CC)CCNC(=O)c1ccc(N)cc1	0.88
O=C(O)c1ccccc1O	2.26
C=CCC1(CCCC)C(=O)NC(=O)NC1=O	2.31
CC(=O)Nc1ccc(OCC(O)CNC(C)C)cc1 (stereo unspecified)	0.79
O=C(O)COc1ccccc1[N+](=O)[O-]	1.13
Cc1ccc(C)c(C)c1	3.63
O=C1CNC(=O)N1	-1.69
